Like-named read-outs stand apart in the source and are kept apart here. Marks after values point to notes of the source that are not given here.
Legend:
L. major promastigote = L. major promastigote assay; assay type: cell-based
T. cruzi = T. cruzi growth inhibition; assay type: cell-based, Trypanosoma cruzi
[1] = system: T. brucei brucei Lister 427; assay: Trypanosome replication assay; assay type: cell-based, Trypanosoma brucei brucei; settings: 48 h, 48 h, values ±7%
Procedure: Then 2 μL of DMSO (control) or different concentrations of drugs prepared from 200× DMSO stocks were added to the cultures. Cells were incubated at 37° C. for 48 h and counted with a hemocytometer. […] All experiments were repeated thrice in independent studies where each dose was administered in duplicate (total n=6). HepG2 Cell Toxicity Assay. The 384 well MTT cytotoxicity assay is a modification of the MTT method described by Ferrari et al. optimized for 384-well throughput, with modifications described below.

L. major amastigote = L. major amastigote assay; assay type: cell-based
P. falciparum D6 = P. falciparum D6 assay; assay type: cell-based; settings: strain D6
P. falciparum C235 = P. falciparum C235 assay; assay type: cell-based; settings: read-out: P. falciparum C235 (EC50)
P. falciparum W2 = P. falciparum W2 assay; assay type: cell-based
[2] = Trypanosoma brucei, concentration giving 50% inhibition of growth of T brucei brucei Lister 427 cells, read-out: Tbb EC50
[3] = Plasmodium falciparum, strain C235
[4] = Plasmodium falciparum, strain W2, read-out: P. falciparum W2 (EC50)
[5] = concentration giving 50% inhibition of growth of T brucei brucei Lister 427 cells, read-out: Tbb EC50
[6] = strain W2, read-out: P. falciparum W2 (EC50)

Structure (SMILES) | EC50 (L. major promastigote; Leishmania major) | EC50 (T. cruzi; Trypanosoma cruzi) | EC50 [1, 2] | EC50 ([1]; concentration giving 50% inhibition of growth of T brucei brucei Lister 427 cells, listed as NEU-783, read-out: Tbb EC50) | EC50 (L. major amastigote; Leishmania major) | EC50 (P. falciparum D6; Plasmodium falciparum) | EC50 (P. falciparum C235; [3]) | EC50 (P. falciparum W2; [4]) | EC50 (L. major promastigote) | EC50 (T. cruzi) | EC50 [1, 5] | EC50 (L. major amastigote) | EC50 (P. falciparum D6) | EC50 (P. falciparum C235; strain C235) | EC50 (P. falciparum W2; [6]) | T. cruzi % inh at 10 μM (T. cruzi) | EC50 ([1]; Trypanosoma brucei, read-out: Tbb EC50, concentration giving 50% inhibition of growth of T brucei brucei Lister 427 cells) | EC50 (P. falciparum C235; Plasmodium falciparum) | EC50 (P. falciparum W2; Plasmodium falciparum, W2, read-out: P. falciparum W2 (EC50))
O=C(c1ccc(-c2ccc3ncnc(Nc4ccc(OCc5cccc(F)c5)c(Cl)c4)c3c2)cc1)N1CCOCC1 [Compound 23f, (4-(4-((3-Chloro-4-((3-fluorobenzyl)oxy)phenyl)amino)-quinazolin-6-yl)phenyl)(morpholino)methanone] | 850 nM | 2800 nM | 1210 nM | 1200 nM | 1400 nM | 400 nM | 610 nM | 860 nM | – | – | – | – | – | – | – | – | – | – | –
CN(C)c1cccc(-c2ccc3ncnc(Nc4ccc(OCc5cccc(F)c5)c(Cl)c4)c3c2)c1 [NEU-708] | – | – | – | – | – | – | – | – | > 15000 nM | – | 2200 nM | > 15000 nM | 460 nM | 550 nM | 1400 nM | (58)* % | – | – | –
CC(C)(C)OC(=O)N1CCN(c2ccc(-c3ccc4ncnc(Nc5ccc(OCc6cccc(F)c6)c(Cl)c5)c4c3)cc2)CC1 [NEU-634] | – | – | – | – | – | – | – | – | 3100 nM | – | 6000 nM | 3100 nM | 860 nM | 1100 nM | 3200 nM | (8)* % | – | – | –
CN1CCN(S(=O)(=O)c2ccc(-c3ccc4ncnc(Nc5ccc(OCc6ccccc6)c(Cl)c5)c4c3)cc2)CC1 [NEU-764] | – | – | – | – | – | – | – | – | 3400 nM | 3900 nM | 610 nM | 2200 nM | 29 nM | 28 nM | 51 nM | – | – | – | –
O=C(c1cncc(-c2ccc3ncnc(Nc4ccc(OCc5cccc(F)c5)c(Cl)c4)c3c2)c1)N1CCOCC1 [NEU-640] | – | – | – | – | – | – | – | – | > 15000 nM | – | 340 nM | > 15000 nM | 370 nM | 500 nM | 630 nM | −2% | – | – | –
CN1CCN(c2cccc(-c3ccc4ncnc(Nc5ccc(OCc6cccc(F)c6)c(Cl)c5)c4c3)c2)CC1 [NEU-714] | – | – | – | – | – | – | – | – | 1900 nM | – | 550 nM | 4200 nM | 44 nM | 110 nM | 59 nM | (72)* % | – | – | –
Fc1cccc(COc2ccc(Nc3ncnc4ccc(-c5cccc(CN6CCCCC6)c5)cc34)cc2Cl)c1 [Compound 23i] | – | – | – | – | – | – | – | – | 2500 nM | 1500 nM | 650 nM | 3500 nM | 39 nM | 65 nM | 73 nM | – | – | – | –
Fc1cccc(COc2ccc(Nc3ncnc4ccc(-c5cccc(N6CCSCC6)c5)cc34)cc2Cl)c1 [NEU-713] | – | – | – | – | – | – | – | – | > 15000 nM | – | 770 nM | 10000 nM | 440 nM | 780 nM | 1300 nM | (55)* % | – | – | –
CN1CCN(S(=O)(=O)c2ccc(-c3ccc4ncnc(Nc5ccc(OCc6ccccc6)cc5)c4c3)cc2)CC1 [NEU-765] | – | – | – | – | – | – | – | – | 1500 nM | 9900 nM | 630 nM | 1900 nM | 41 nM | 36 nM | 110 nM | – | – | – | –
CN1CCN(S(=O)(=O)c2ccc(-c3ccc4ncnc(Nc5ccccc5)c4c3)cc2)CC1 [NEU-767] | – | – | – | – | – | – | – | – | 6100 nM | > 50000 nM | 1500 nM | > 15000 nM | 700 nM | 730 nM | 1500 nM | – | – | – | –
Fc1cccc(COc2ccc(Nc3ncnc4ccc(-c5cccc(-n6cccn6)c5)cc34)cc2Cl)c1 [NEU-709] | – | – | – | – | – | – | – | – | > 15000 nM | – | 7500 nM | > 15000 nM | 19000 nM | 19000 nM | 19000 nM | (10)* % | – | – | –
O=C(c1ccc(-c2ccc3ncnc(Nc4ccc(OCc5cccc(F)c5)c(Cl)c4)c3c2)cc1)N1CCCCC1 [Compound 23l, (4-(4-((3-Chloro-4-((3-fluorobenzyl)oxy)phenyl)amino)-quinazolin-6-yl)phenyl)(piperidin-1-yl)methanone] | 1000 nM | > 50000 nM | 940 nM | – | 2900 nM | 250 nM | 360 nM | 880 nM | – | – | – | – | – | – | – | – | – | – | –
CN1CCN(S(=O)(=O)c2ccc(-c3ccc4ncnc(Nc5ccc(F)cc5)c4c3)cc2)CC1 [NEU-768] | – | – | – | – | – | – | – | – | 12000 nM | > 50000 nM | 2000 nM | > 15000 nM | 360 nM | 380 nM | 780 nM | – | – | – | –
Fc1cccc(COc2ccc(Nc3ncnc4ccc(-c5ccc(N6CCCCC6)cc5)cc34)cc2Cl)c1 [Compound 23h, N-(3-Chloro-4-((3-fluorobenzyl)oxy)phenyl)-6-(4-(piperidin-1-yl)phenyl)quinazolin-4-amine] | > 15000 nM | 7200 nM | – | – | 5000 nM | 580 nM | – | – | – | – | – | – | – | – | – | – | 380 nM | 1000 nM | 1200 nM
O=C(c1cccc(-c2ccc3ncnc(Nc4ccc(OCc5cccc(F)c5)c(Cl)c4)c3c2)c1)N1CCCC1 [NEU-618] | – | – | – | – | – | – | – | – | > 15000 nM | – | 520 nM | > 15000 nM | 69 nM | 90 nM | 90 nM | (7)* % | – | – | –
Fc1cccc(COc2ccc(Nc3ncnc4ccc(-c5cccc(CN6CCOCC6)c5)cc34)cc2Cl)c1 [Compound 23c] | – | – | – | – | – | – | – | – | 3300 nM | 2400 nM | 360 nM | 3000 nM | 190 nM | 290 nM | 350 nM | – | – | – | –
Fc1cccc(COc2ccc(Nc3ncnc4ccc(-c5ccc(N6CCNCC6)cc5)cc34)cc2Cl)c1 [NEU-710] | – | – | – | – | – | – | – | – | > 15000 nM | 1400 nM | 370 nM | 8600 nM | 380 nM | 760 nM | 630 nM | – | – | – | –

More lines, main results first:

EC50 (L. major promastigote; Leishmania major) | EC50 (T. cruzi; Trypanosoma cruzi) | EC50 [1, 2] | EC50 ([1]; concentration giving 50% inhibition of growth of T brucei brucei Lister 427 cells, listed as NEU-783, read-out: Tbb EC50) | EC50 (L. major amastigote; Leishmania major) | EC50 (P. falciparum D6; Plasmodium falciparum) | EC50 (P. falciparum C235; [3]) | EC50 (P. falciparum W2; [4]) | EC50 (L. major promastigote) | EC50 (T. cruzi) | EC50 [1, 5] | EC50 (L. major amastigote) | EC50 (P. falciparum D6) | EC50 (P. falciparum C235; strain C235) | EC50 (P. falciparum W2; [6]) | Structure (SMILES) | T. cruzi % inh at 10 μM (T. cruzi) | EC50 ([1]; Trypanosoma brucei, read-out: Tbb EC50, concentration giving 50% inhibition of growth of T brucei brucei Lister 427 cells) | EC50 (P. falciparum C235; Plasmodium falciparum) | EC50 (P. falciparum W2; Plasmodium falciparum, W2, read-out: P. falciparum W2 (EC50))
– | – | – | – | – | – | – | – | 4600 nM | 21000 nM | 2400 nM | > 15000 nM | 110 nM | 170 nM | 390 nM | CN1CCN(S(=O)(=O)c2ccc(-c3ccc4ncnc(Nc5ccc(Cl)cc5)c4c3)cc2)CC1 [NEU-769] | – | – | – | –
– | – | – | – | – | – | – | – | > 15000 nM | 1500 nM | 1200 nM | > 15000 nM | 39 nM | 40 nM | 90 nM | CN1CCN(S(=O)(=O)c2ccc(-c3ccc4ncnc(Nc5ccc6cnn(Cc7cccc(F)c7)c6c5)c4c3)cc2)CC1 [NEU-771] | – | – | – | –
– | – | – | – | – | – | – | – | 8400 nM | 3400 nM | 1500 nM | 5500 nM | 68 nM | 91 nM | 110 nM | Fc1cccc(COc2ccc(Nc3ncnc4ccc(-c5ccc(CN6CCCCC6)cc5)cc34)cc2Cl)c1 [Compound 23j] | – | – | – | –
– | – | – | – | – | – | – | – | > 15000 nM | 1400 nM | 3300 nM | 1200 nM | 38 nM | 33 nM | 84 nM | CN1CCN(S(=O)(=O)c2cccc(-c3ccc4ncnc(Nc5ccc(OCc6cccc(F)c6)c(Cl)c5)c4c3)c2)CC1 [NEU-770] | – | – | – | –
– | – | – | – | – | – | – | – | 4000 nM | 1800 nM | 3900 nM | 22000 nM | 790 nM | 1200 nM | 2600 nM | Fc1cccc(COc2ccc(Nc3ncnc4ccc(-c5ccccc5)cc34)cc2Cl)c1 [NEU-706] | – | – | – | –
– | – | – | – | – | – | – | – | 14000 nM | – | 1000 nM | 14000 nM | 270 nM | 430 nM | 580 nM | CC(C)(C)OC(=O)N1CCN(S(=O)(=O)c2ccc(-c3ccc4ncnc(Nc5ccc(OCc6cccc(F)c6)c(Cl)c5)c4c3)cc2)CC1 [NEU-624] | (5)* % | – | – | –
– | – | – | – | – | – | – | – | 5900 nM | > 50000 nM | 780 nM | > 15000 nM | 33 nM | 58 nM | 210 nM | COc1ccc(Nc2ncnc3ccc(-c4ccc(S(=O)(=O)N5CCN(C)CC5)cc4)cc23)cc1Cl [NEU-766] | – | – | – | –
– | – | – | – | – | – | – | – | 980 nM | – | 840 nM | > 15000 nM | 910 nM | 1100 nM | 740 nM | Fc1cccc(Cn2ncc3ccc(Nc4ncnc5ccc(-c6cccc(N7CCOCC7)c6)cc45)cc32)c1 [NEU-734] | (62)* % | – | – | –
– | – | – | – | – | – | – | – | 3600 nM | – | 1000 nM | 1100 nM | 260 nM | 360 nM | 540 nM | Cc1cc(-c2ccc3ncnc(Nc4ccc(OCc5cccc(F)c5)c(Cl)c4)c3c2)cnc1N1CCOCC1 [NEU-632] | 49% | – | – | –
3000 nM | 3500 nM | 550 nM | – | > 15000 nM | 760 nM | 1200 nM | 1100 nM | – | – | – | – | – | – | – | O=C(c1cccc(-c2ccc3ncnc(Nc4ccc(OCc5cccc(F)c5)c(Cl)c4)c3c2)c1)N1CCOCC1 [Compound 23e, (3-(4-((3-Chloro-4-((3-fluorobenzyl)oxy)phenyl)amino)-quinazolin-6-yl)phenyl)(morpholino)methanone] | – | – | – | –
